According to publication PMC6981454, “Promising 2,6,9-Trisubstituted Purine Derivatives for Anticancer Compounds: Synthesis, 3D-QSAR, and Preliminary Biological Assays” (International Journal of Molecular Sciences, 2019):
Read-outs that look alike come from different tables or passages of the source.

What was measured:
Type in all cases: cell-based, human
HL-60 cells = experiment: Cell viability by propidium iodide flow cytometry; conditions: HL-60, 50 μM, 24 h, PI staining
Text: Next, in order to determinate the cell death type induced by the most promising compounds, we performed a flow cytometry analysis of cell viability in cell line HL-60 treated with the most promising compounds (selected according to their IC50 values and SI). The HL-60 cancer cells were chosen due to their sensitivity to prepared compounds. […] As a preliminary apoptosis filter, propidium iodide (PI) staining was used through flow cytometry analysis which discriminated a population of viable cells impermeable to PI (PI negative) from necrotic cells PI-permeable (PI positive) and apoptotic cells (the difference of the previous two). The results are shown in Figure 7, illustrating that all purine derivatives tested induced apoptosis on HL-60 cells. Around 40% of apoptotic cells were detected in a culture treated with compounds 7a and 7i, 30% by 7e, 7g, and 7h and 70% by 7d and 7j. […] (For dot plots, see Supplementary Information Figures S1–S3.)
Cell viability was analyzed by flow cytometry as previously described. In this assay, after setting the baseline to exclude cell debris, cells impermeable to propidium iodide (PI negative) are considered as viable. Two populations of PI-permeable dead cells are distinguished based on fluorescence intensity, corresponding to either hypodiploid apoptotic cells or necrotic cells with intact DNA. Here, HL60 cells were incubated with concentrations of 50 µM of each compound for 24 h at 37 °C. Cells were harvested and stained with 10 µg/mL of propidium iodide to determine cell viability. Samples containing roughly 1 × 10^4 cells were evaluated by flow cytometry (FACScanto II; Becton Dickinson, Mountain View, CA) and analyzed using FCS Express v6 software. Three independent biological replicates were performed.

MRC-5 = experiment: MTT cytotoxicity assay, 72 h, normal control cells; conditions: normal fibroblasts
Protocol: (§1) In our study, the human cancer cell lines used were CFAPC- 1 (pancreatic adenocarcinoma); NCI-H460 (large cell lung); HL-60 (acute promyelocytic leukaemia); CACO2 (colorectal adenocarcinoma); HCT-116 (colorectal carcinoma); K562 (chronic myeloid leukaemia); MCF-7 (breast adenocarcinoma); and MRC-5 control cells (normal fibroblasts).
(§2) CFAPC-1, NCI-H460 H1975, HL-60, HCT-116, CACO2, K562, MCF-7, and MCR-5 were grown and maintained in RPMI 1640 and DMEM F12 as appropriate with 10% fetal bovine serum, 100 UI/mL penicillin–streptomycin, and cultured al 37 °C in 5% CO2 humidified atmosphere. Control cultures were treated with dimethyl sulfoxide (1%) alone at the same concentration as in the purine derivatives treatment. Cell viability was determined by trypan blue dye exclusion. Cell numbers were counted in hemocytometer by light microscopy.
(§3) Cytotoxicity assays were performed by using the MTT reduction method as described in the literature. Briefly, cancer cell lines were plated in a flat-bottom 96-wells plate at 1 × 10^4 cells per well density. Then, the cells were incubated with synthetized compounds at different concentrations (from 0.1 to 100 µM) in 200 µL of 10% fetal bovine serum-RPMI or EMEM culture medium at 37 °C for 72 h. Then, 10 µL of MTT was added at a final concentration of 0.5 mg/mL, incubated at 37 °C for 4 h, and then solubilized with 10% sodium dodecyl sulphate (SDS) in 0.1 mM HCl and incubated overnight at 37 °C. Formazan formation was measured at 570 nm in a multi-well reader (StatFax 4200).

CACO2 = experiment: MTT cytotoxicity assay, 72 h
Protocol: Cytotoxicity assays were performed by using the MTT reduction method as described in the literature [23, 37]. Briefly, cancer cell lines were plated in a flat-bottom 96-wells plate at 1 × 10^4 cells per well density. Then, the cells were incubated with synthetized compounds at different concentrations (from 0.1 to 100 µM) in 200 µL of 10% fetal bovine serum-RPMI or EMEM culture medium at 37 °C for 72 h. Then, 10 µL of MTT was added at a final concentration of 0.5 mg/mL, incubated at 37 °C for 4 h, and then solubilized with 10% sodium dodecyl sulphate (SDS) in 0.1 mM HCl and incubated overnight at 37 °C. Formazan formation was measured at 570 nm in a multi-well reader (StatFax 4200).

HL-60 = experiment: MTT cytotoxicity assay, 72 h; conditions: for Selectivity Index (SI) MRC-5/HL-60: IC50 in MRC-5 / IC50 in HL-60
Protocol: as §1, §2, §3

HCT-116 = experiment: MTT cytotoxicity assay, 72 h
Protocol: as §1, §2, §3

MCF-7 = experiment: MTT cytotoxicity assay, 72 h; conditions: for IC50: MTT, 72 h, IC50 ± SD
Protocol: as §1, §2, §3

CFPAC-1 = experiment: MTT cytotoxicity assay, 72 h
Protocol: as §1, §2, §3

K562 = experiment: MTT cytotoxicity assay, 72 h; conditions: for IC50: MTT, 72 h, IC50 ± SD; for Selectivity Index (SI) MRC-5/K562: IC50 in MRC-5 / IC50 in K562
Protocol: as §1, §2, §3

NCI-H460 = experiment: MTT cytotoxicity assay, 72 h; conditions: for Selectivity Index (SI) MRC-5/NCI-H460: IC50 in MRC-5 / IC50 in NCI-H460
Protocol: as §1, §2, §3

[1] = Homo sapiens, Caco-2, IC50 ± SD
[2] = Homo sapiens, HL-60, 72 h, MTT, 72 h, IC50 ± SD, read-out: IC50 HL-60
[3] = Homo sapiens, HL-60, -logIC50 in molar concentration, Table S1, read-out: Experimental pIC50 (HL-60) (converted)
[4] = Homo sapiens, HCT-116, IC50 ± SD
[5] = Homo sapiens, CFPAC-1, IC50 ± SD
[6] = Homo sapiens, NCI-H460, 72 h, MTT, 72 h, IC50 ± SD, read-out: IC50 NCI-H460
[7] = Homo sapiens, NCI-H460, -logIC50 in molar concentration, Table S2, read-out: Experimental pIC50 (NCI-H460) (converted)
[8] = MTT, 72 h, IC50 ± SD, read-out: IC50 NCI-H460
[9] = MTT, 72 h, IC50 ± SD, read-out: IC50 HL-60

Compound	apoptotic cells (HL-60 cells)	IC50 (MRC-5; Homo sapiens, MRC5, IC50 ± SD) [µM]	IC50 (CACO2; [1]) [µM]	IC50 (HL-60; [2]) [µM]	IC50 (HL-60; [3]) [µM]	Selectivity Index (SI) MRC-5/HL-60 (HL-60)	IC50 (HCT-116; [4]) [µM]	IC50 (MCF-7; Homo sapiens, MCF7, 72 h) [µM]	IC50 (CFPAC-1; [5]) [µM]	IC50 (K562; Homo sapiens, K562, 72 h) [µM]	IC50 (NCI-H460; [6]) [µM]	IC50 (NCI-H460; [7]) [µM]	Selectivity Index (SI) MRC-5/NCI-H460 (NCI-H460)	IC50 (NCI-H460; [8]) [µM]	IC50 (MRC-5; IC50 ± SD) [µM]	IC50 (HL-60; [9]) [µM]	IC50 (HCT-116; IC50 ± SD) [µM]	IC50 (MCF-7) [µM]	IC50 (CFPAC-1; IC50 ± SD) [µM]	IC50 (K562) [µM]	other results
Clc1nc(N2CCN(c3cnccn3)CC2)c2ncn(C3CCCC3)c2n1 [7d, 2-Chloro-9-cyclopentyl-6-(4-(pyrazin-2-yl)piperazin-1-yl)-9H-purine]	~70%	17 ± 1	> 100	4.6 ± 0.2	4.6	3.7	> 50	> 12.5	> 100	5.86 ± 1.06	8.25 ± 0.11	8.25	2.0								Selectivity Index (SI) MRC-5/K562 (K562): 2.9
Clc1nc(N2CCC(c3ccccc3)CC2)c2ncn(C3CCCC3)c2n1 [7e, 2-Chloro-9-cyclopentyl-6-(4-phenylpiperidin-1-yl)-9H-purine]	~30%	> 100	> 100	3 ± 0.6	3	> 33.3	> 50		> 100		11 ± 1	11	> 9.1								
Clc1nc(N2CCN(c3ccccc3)CC2)c2ncn(C3CCCC3)c2n1 [7f, 2-Chloro-9-cyclopentyl-6-(4-phenylpiperazin-1-yl)-9H-purine]		> 100	> 100	1.3 ± 0.5	1.3		> 50	6.13 ± 0.25	> 100	4.22 ± 0.27	6.71 ± 0.23	6.71									
Clc1nc(N2CCN(c3ccncc3)CC2)c2ncn(C3CCCC3)c2n1 [7i, 2-Chloro-9-cyclopentyl-6-(4-(pyridin-4-yl)piperazin-1-yl)-9H-purine]	Around 40%	> 100	> 100	3.8 ± 1.5	3.8	> 26.3	> 50	22 ± 1	> 100	9.96 ± 0.93	< 10	8.54	> 11.7	8.54 ± 0.21							Selectivity Index (SI) MRC-5/MCF-7 (MCF-7; IC50 in MRC-5 / IC50 in MCF-7): > 4.5; Selectivity Index (SI) MRC-5/K562 (K562): > 10
N.N.[Cl][Pt][Cl] [Cisplatin, reference compound]	66%													4.77 ± 0.13	6.78 ± 0.18	6.2 ± 0.2	3.89 ± 1.3	10.9 ± 0.8	3.16 ± 0.1	4.67 ± 0.38	IC50 (NCI-H460; MTT, 72 h, IC50 ± SD, listed as cisplatin, read-out: IC50 NCI-H460): 4.8 µM
N-cycloheptyl-9-ethyl-6-(4-(trifluoromethoxy)phenyl)-9H-purin-2-amine [4d]														> 100	> 100	21 ± 1	> 50	> 25	> 100	> 25	IC50 (CACO2; IC50 ± SD): > 100 µM; Experimental pIC50 (HL-60) (HL-60; -logIC50 in molar concentration, Table S1): 4.6778 M
N-cyclohexyl-9-ethyl-6-(4-(trifluoromethoxy)phenyl)-9H-purin-2-amine [4b]														> 100	> 100	> 50	> 50	> 25	> 100	> 25	IC50 (CACO2; IC50 ± SD): > 100 µM
